# Assays:
# [1] = tested on: Candida krusei (ATCC 6258); assay: broth dilution MIC (EUCAST EDef 7.1), resazurin; format: cell-based; settings: Pichia kudriavzevii, ATCC6258, 24 h
# Description: (§1) Microbiological studies were performed according to following guides: CLSI reference […]-A9 broth microdilution method[49] for bacterial strains and EUCAST definitive (EDef 7.1) method[50] for Candida species. Synthesized compounds were tested for their in vitro growth inhibitory activity against Staphylococcus aureus (ATCC 25923), Enterococcus faecalis (ATCC 29212), Listeria monocytogenes (ATCC 1911), Klebsiella pneumoniae (NCTC 9633), Escherichia coli (ATCC 35218), E. coli (ATCC 25922) Candida albicans (ATCC 24433) Candida krusei (ATCC 6258) and Candida parapsilosis (ATCC 22019). Chloramphenicol and ketoconazole were used as control drugs. The cultures were obtained from the Mueller-Hinton broth (Difco) for the bacterial strains after overnight incubation at 37 °C. The yeasts were maintained in Roswell Park Memorial Institute (RPMI) after overnight incubation at 37 °C. […] Testing was carried out in Mueller-Hinton broth and RPMI at pH =7, and the two-fold serial dilutions technique was applied. The last well on the microplates containing only inoculated broth was kept as controls and the last well with no growth of microorganism was recorded to represent the minimum inhibitory concentration (MIC) expressed in μg/mL. For both the antibacterial and antifungal assays, the compounds were dissolved in DMSO. […] The completed plates were incubated for 24 h. At the end of the incubation, resazurin (20 μg/mL) was added into each well and plates were incubated for 2 h. MIC values were determined using a microplate reader at […]. Synthesized compounds (6a-6m) were evaluated for antimicrobial activity against various microorganisms such as Staphylococcus aureus (ATCC 25923), Enterococcus faecalis (ATCC 29212), Listeria monocytogenes (ATCC 1911), Klebsiella pneumoniae (NCTC 9633), Escherichia coli (ATCC 35218), E. coli (ATCC 25922)Candida albicans (ATCC 24433) Candida krusei (ATCC 6258) and Candida parapsilosis (ATCC 22019). […] Chloramphenicol and ketoconazole were used as standard drugs in the activity test. […] Besides, the compounds 6d, 6h, 6l and 6m indicated stronger antibacterial activity than the other compounds in the series.
# [2] = tested on: Candida parapsilosis (ATCC 22019); assay: broth dilution MIC (EUCAST EDef 7.1), resazurin; format: cell-based; settings: ATCC22019, 24 h
# Description: as §1
# [3] = tested on: Candida albicans (ATCC 24433); assay: broth dilution MIC (EUCAST EDef 7.1), resazurin; format: cell-based; settings: ATCC24433, 24 h
# Description: as §1
# COX-1 = biological target: T1, COX-1 (Ovis aries, UniProt P05979); assay: fluorometric COX-1 inhibitor screening kit assay; format: biochemical; settings: for SI (selectivity index): IC50 (COX-1)/IC50 (COX-2); for IC50: fluorometric kit, 25 °C; for Selectivity: isoform preferred according to SI
# T1 construct: purchased Biovision K548-100
# T1 sequence (P05979 25-600): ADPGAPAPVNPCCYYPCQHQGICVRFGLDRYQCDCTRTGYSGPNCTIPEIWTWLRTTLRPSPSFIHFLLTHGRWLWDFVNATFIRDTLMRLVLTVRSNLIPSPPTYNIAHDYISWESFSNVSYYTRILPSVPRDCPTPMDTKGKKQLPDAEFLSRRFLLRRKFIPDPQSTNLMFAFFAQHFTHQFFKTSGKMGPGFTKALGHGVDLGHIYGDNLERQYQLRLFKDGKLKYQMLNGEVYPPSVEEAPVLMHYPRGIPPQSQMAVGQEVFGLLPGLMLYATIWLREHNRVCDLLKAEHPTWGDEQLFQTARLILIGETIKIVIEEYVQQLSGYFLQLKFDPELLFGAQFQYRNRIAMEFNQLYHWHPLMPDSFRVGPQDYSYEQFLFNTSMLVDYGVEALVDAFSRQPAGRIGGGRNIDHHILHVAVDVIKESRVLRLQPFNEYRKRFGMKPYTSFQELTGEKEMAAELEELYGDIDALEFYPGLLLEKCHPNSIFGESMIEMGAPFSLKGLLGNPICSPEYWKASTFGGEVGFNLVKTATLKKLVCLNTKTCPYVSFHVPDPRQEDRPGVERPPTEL
# Description: (§2) Inhibitory potency of the compounds against COX-1 and COX-2 enzymes was determined using fluorometric COX-1 and COX-2 inhibitor screening kits (Biovision, Zurich, Switzerland). Experimental protocol was followed as described in the guides of the supplier[47]^,[48]. All of the pipettings in the assay were performed by Biotek Precision robotic system (BioTek Instruments, Inc., Winooski, VT). […] Appropriate two points (T1 and T2) in the linear range of the plot were chosen, and the corresponding fluorescence values (RFU1 and RFU2) were obtained. The slope for all samples, including enzyme control (EC), by dividing the net ΔRFU (RFU2–RFU1) values by the time ΔT (T2–T1) were calculated by using following equation: % Relative inhibition=(Slope of EC-Slope of S/Slope of EC)×100
# (§3) This initial in vitro assay was done with two concentrations (10^−3 and 10^−4 M) for all compounds. […] The IC50 value was calculated from the plots of enzyme activity against concentrations by applying regression analyses on GraphPad Prism Version 5 (GraphPad Software, La Jolla, CA).
# (§4) Selectivity indexes (SI) were expressed as IC50 (COX-1)/IC50 (COX-2). Selectivity toward COX-2 decreases as the corresponding SI decreases while selectivity toward COX-1 isoform increases as the corresponding SI decreases.
# COX-2 = biological target: T2, COX-2 (Homo sapiens, UniProt P35354); assay: fluorometric COX-2 inhibitor screening kit assay; format: biochemical; settings: 25 °C
# T2 construct: purchased Biovision K547-100
# T2 sequence (P35354 18-604): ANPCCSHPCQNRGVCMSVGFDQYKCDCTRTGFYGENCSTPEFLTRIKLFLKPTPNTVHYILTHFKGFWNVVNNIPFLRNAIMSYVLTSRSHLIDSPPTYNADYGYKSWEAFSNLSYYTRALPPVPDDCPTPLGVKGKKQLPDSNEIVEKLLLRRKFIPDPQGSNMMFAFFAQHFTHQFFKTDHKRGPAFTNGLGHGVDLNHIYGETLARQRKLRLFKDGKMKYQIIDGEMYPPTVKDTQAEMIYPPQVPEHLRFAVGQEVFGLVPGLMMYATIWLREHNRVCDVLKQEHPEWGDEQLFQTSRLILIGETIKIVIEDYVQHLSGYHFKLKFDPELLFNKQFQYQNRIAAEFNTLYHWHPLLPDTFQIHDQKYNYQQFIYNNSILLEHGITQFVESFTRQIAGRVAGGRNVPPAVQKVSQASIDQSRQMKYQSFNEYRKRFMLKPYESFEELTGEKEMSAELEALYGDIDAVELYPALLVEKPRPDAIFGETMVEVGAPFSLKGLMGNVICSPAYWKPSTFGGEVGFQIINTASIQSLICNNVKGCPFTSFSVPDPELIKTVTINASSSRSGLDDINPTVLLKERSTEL
# Description: as §2, §3, §4
# [4] = tested on: Listeria monocytogenes (ATCC 1911); assay: broth microdilution MIC (CLSI M07-A9), resazurin; format: cell-based; settings: ATCC1911, 24 h
# Description: as §1
# [5] = tested on: Escherichia coli (ATCC 35218); assay: broth microdilution MIC (CLSI M07-A9), resazurin; format: cell-based; settings: ATCC35218, 24 h, read-out: MIC Ec-1
# Description: as §1
# [6] = tested on: Klebsiella pneumoniae (NCTC 9633); assay: broth microdilution MIC (CLSI M07-A9), resazurin; format: cell-based; settings: 24 h
# Description: as §1
# [7] = tested on: Escherichia coli (ATCC 25922); assay: broth microdilution MIC (CLSI M07-A9), resazurin; format: cell-based; settings: ATCC25922, 24 h, read-out: MIC Ec-2
# Description: as §1
# [8] = tested on: Staphylococcus aureus (ATCC 25923); assay: broth microdilution MIC (CLSI M07-A9), resazurin; format: cell-based; settings: ATCC25923, 24 h
# Description: as §1
# [9] = tested on: Enterococcus faecalis (ATCC 29212); assay: broth microdilution MIC (CLSI M07-A9), resazurin; format: cell-based; settings: ATCC29212, 24 h
# Description: as §1
Compound,MIC [1] [µg/mL],MIC [2] [µg/mL],MIC [3] [µg/mL],SI (selectivity index) (COX-1),IC50 (COX-1) [µM],Selectivity (COX-1),IC50 (COX-2) [µM],MIC [4] [µg/mL],MIC [5] [µg/mL],MIC Kp [6] [µg/mL],MIC [7] [µg/mL],MIC [8] [µg/mL],MIC [9] [µg/mL],melting point [°C]
"CC(C(=O)O)c1ccc(CSc2nncn2C)cc1 (stereo not drawn) [Compound 6d, 2-(4-(((4-Methyl-4 H-1,2,4-triazol-3-yl)thio)methyl)phenyl)propanoic acid]",50,50,50,0.62,24.6,COX-1,39.9,12.5,6.25,6.25,12.5,12.5,6.25,–
"CC(C(=O)O)c1ccc(CSc2nnnn2C)cc1 (stereo not drawn) [Compound 6e, 2-(4-(((1-Methyl-1 H-tetrazol-5-yl)thio)methyl)phenyl)propanoic acid]",50,50,50,0.60,21.8,COX-1,36.3,12.5,6.25,6.25,12.5,12.5,12.5,–
"CC(C(=O)O)c1ccc(CSc2nc3ccccc3s2)cc1 (stereo not drawn) [Compound 6f, 2-(4-((Benzo[d]thiazol-2-ylthio)methyl)phenyl)propanoic acid]",100,50,100,0.54,2.36,COX-1,4.41,12.5,6.25,12.5,12.5,12.5,12.5,128.2 to 130.8
"CC(C(=O)O)c1ccc(CSc2nc3cc(Cl)ccc3s2)cc1 (stereo not drawn) [Compound 6g, 2-(4-(((5-Chlorobenzo[d]thiazol-2-yl)thio)methyl)phenyl)propanoic acid]",100,50,100,0.58,2.46,COX-1,4.25,12.5,6.25,12.5,12.5,12.5,12.5,162.3 to 164.7
"CC(=O)N1CCN(c2ccc(OCC3COC(Cn4ccnc4)(c4ccc(Cl)cc4Cl)O3)cc2)CC1 (stereo not drawn) [Ketoconazole, reference compound]",0.78,0.78,0.78,–,–,–,–,–,–,–,–,–,–,–
